Tests used:
[1] = type: physicochemical
Procedure: Clear solutions without precipitates are considered soluble. Unless indicated otherwise herein, the term “solubility” refers to “equilibrium solubility.”
Upon heating to 80° C. for 15 minutes, rebaudioside D has an equilibrium solubility of 0.08% for at least four days at room temperature.

[2] = sensory evaluation; cited from earlier work

| Structure (SMILES) | equilibrium solubility [1] | instantaneous solubility [1] | sweetness relative to sucrose [2] |
| --- | --- | --- | --- |
| C=C1C[C@@]23CC[C@H]4[C@@](C)(CCC[C@@]4(C)C(=O)O[C@@H]4O[C@H](CO)[C@@H](O)[C@H](O)[C@H]4O[C@@H]4O[C@H](CO)[C@@H](O)[C@H](O)[C@H]4O)[C@@H]2CC[C@]1(O[C@@H]1O[C@H](CO)[C@@H](O)[C@H](O[C@@H]2O[C@H](CO)[C@@H](O)[C@H](O)[C@H]2O)[C@H]1O[C@@H]1O[C@H](CO)[C@@H](O)[C@H](O)[C@H]1O)C3 [Rebaudioside D] | 0.08% | less than 0.08% | 200-220 times sweeter than sucrose |
| C=C1C[C@@]23CC[C@H]4[C@@](C)(CCC[C@@]4(C)C(=O)O[C@@H]4O[C@H](CO)[C@@H](O)[C@H](O[C@@H]5O[C@H](CO)[C@@H](O)[C@H](O)[C@H]5O)[C@H]4O[C@@H]4O[C@H](CO)[C@@H](O)[C@H](O)[C@H]4O)[C@@H]2CC[C@]1(O[C@@H]1O[C@H](CO)[C@@H](O)[C@H](O[C@@H]2O[C@H](CO)[C@@H](O)[C@H](O)[C@H]2O)[C@H]1O[C@@H]1O[C@H](CO)[C@@H](O)[C@H](O)[C@H]1O)C3 [Rebaudioside M] | about 0.2% | about 0.13% |  |

Source: US12662505B2, “Steviol glycoside solubility enhancers” (CARGILL, INCORPORATED, priority 2019, dated 2026)
